Source: patent US20110287470A1, “CELL CULTURE METHOD TO FORM AGGREGATES” (priority 2008, published 2011)

System: cardiac tissue generated from cardiomyocytes derived from human ESCs
Experiment: Multi-electrode array electrophysiological recordings of CardioSpot cardiac tissue
Type: cell-based
Conditions: for repolarising potential (delay measured from the first signal): control 140 ms, FIG. 8
Experimental: CardioSpot made using primary or stem cell derived cardiomyocytes are placed onto the porous MEAs. Electrophysiological recordings were performed either through the supporting membrane or from under the membrane in order to get a direct contact of the tissues with recording electrodes. Control recording were performed using the culture medium as well a the solution used for reference molecules ([…], and lidocaine) Pharmacological experiments were carried out using reference compounds to characterise and validate the cardiac tissue generated from cardiomyocytes derived from human ESCs and engineered using the method of invention.

Row | SMILES | repolarising potential (delay measured from the first signal) (30 nM E4031, after 5 min) [ms] | repolarising potential (delay measured from the first signal) (30 nM E4031, after 15 min) [ms] | decrease of the amplitude of the electrophysiological signals (30 uM lidocaine, after 6 minutes, FIG. 7) [%] | amplitude of the first signal (predominantly dependent on sodium channel opening) (lidocaine, within few minutes, FIG. 7)
1 | Cc1cccc(CCN2CCC(C(=O)c3ccc(NS(C)(=O)=O)cc3)CC2)n1 [E4031] | 155 | 173 | – | –
2 | CCN(CC)CC(=O)Nc1c(C)cccc1C [lidocaine] | – | – | 50 | dramatic decrease of the amplitude
